Entries after “also recorded” stand apart in the source; their conditions may differ.
Columns and labels:
[1] = target: T1, purified recombinant OC2 HOX domain (Homo sapiens, UniProt O95948); assay: Surface plasmon resonance (SPR) binding of compound to immobilized OC2-HOX domain
T1 construct: made in house
T1 sequence (O95948 426-485 limits assumed): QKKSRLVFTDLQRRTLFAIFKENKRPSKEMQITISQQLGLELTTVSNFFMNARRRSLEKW
Procedure: FIG. 13 depicts in accordance with various embodiments of the invention, Compound CSRM617 binds to ONECUT2 in a dose-dependent manner. To measure binding features of CSRM617, the OC2-HOX domain was recombinantly produced. Purified OC2-HOX binding domain was next immobilized on a HisCap sensor chip and CSRM617 was analyzed at serial doubling concentrations maximized at 100 μM.
FIG. 25A-FIG. 25C depict in accordance with various embodiments of the invention, FIG. 25A: (Left panel) representative sensorgram showing dose-dependent OC2-Compound CSRM617 interaction measured by surface plasmon resonance (SPR). Real-time binding was quantified by immobilizing biotinylated OC2 protein on the streptavidin biosensor with varying concentrations of Compound CSRM617 1.56-100 μm). (Right panel) OC2 binding to the experimentally determined OC2 binding site on the PEG10 promoter assayed by SPR. FIG. 25B: suppression of PEG10 protein expression in 22Rv1 tumors. FIG. 25C: suppression of PEG10 protein expression in 22Rv1 tumors.
(§1) To assess whether OC2 might be inhibited with a small molecule, we developed a structural model of OC2 binding to DNA using homology modeling, and conducted a virtual screen of a chemical library consisting of […] compounds. 15 compounds were selected for biological activity testing using in vitro assays. One compound, compound CSRM617, was deemed to be biologically active and was selected for further study. […] To evaluate the selectivity of Compound CSRM617 for genes regulated by OC2, we generated gene expression microarray data from 22Rv1 cells treated with Compound CSRM617 for 4, 6 and 16 h. […] As described above, we identified PEG10 as a gene directly regulated by OC2 binding to the PEG10 promoter. […] The OC2 HOX fragment bound with high affinity (Kd=1 nM) to a DNA probe corresponding to the experimentally determined OC2 binding motif in the PEG10 promoter (FIG. 25A, right panel).

22RV1 = assay: Cell-Titer GLO viability / proliferation in 22RV1; type: cell-based, human
Procedure: (§2) ACTB and GAPDH expression levels were used for normalization. […] Cells were seeded in 96-well plates at 500 cells per well in a total volume of 100 ul media containing 10% FBS. Serially diluted compound CSRM617 was added to the cells 24 h later. After 48 h incubation, cell viability was assessed by Cell-Titer GLO (Promega). The values were normalized and IC50 was calculated using GraphPad Prism software. […] RWPE-1 is a benign prostate cell line.

C4-2 = assay: Cell-Titer GLO viability / proliferation in C4-2; type: cell-based, human
Procedure: as §2

LNCaP = assay: Cell proliferation in vitro in LNCaP; type: cell-based, human
Procedure: as §2

[2] = test system: human prostate cancer cell lines; assay: Growth, apoptosis and IC50 across prostate cell lines versus OC2 expression; type: cell-based; conditions: PC cell lines that express medium to high levels of OC2
Procedure: as §2, §1

[3] = test system: 22RV1 prostate cancer cells; assay: Apoptosis induction by cleaved Caspase-3 and PARP in 22RV1; type: cell-based, human
Excerpt: GAPDH served as a loading control.

OC2 target genes = assay: Gene expression microarray and GSEA of OC2 target genes in 22Rv1; type: cell-based, human; conditions: 10 μM, 4, 6 and 16 h
Procedure: FIG. 14A-FIG. 14E depict in accordance with various embodiments of the invention, Compound CSRM617 perturbs OC2-regulated genes and suppresses 22Rv1 tumor growth in mice. To evaluate the specificity of CSRM617 for genes regulated by OC2, we generated gene expression microarray data from 22Rv1 cells treated with the compound at a concentration of 10 μM for 4, 6 and 16 h.
as §1

PEG10 mRNA = PEG10 mRNA expression in 22Rv1 (microarray); type: cell-based, human; conditions: 10 μM, 4, 6 and 16 h
Procedure: FIG. 16A-FIG. 16C depict in accordance with various embodiments of the invention, that OC2 activates PEG10, a driver of transdifferentiation from adenocarcinoma to neuroendocrine cancer. […] FIG. 16C: we have generated gene expression microarray data from 22Rv1 cells treated with the compound at a concentration of 10 μM for 4, 6 and 16 h. […] By inhibiting OC2 with compound CSRM617 the expression levels of the NE driver PEG10 are reduced.
as §1

22Rv1 xenografts = assay: Subcutaneous 22Rv1 xenograft growth in mice; type: in vivo; conditions: established 22Rv1 xenografts; 50 mg/Kg/d; 50 mg/kg/day
[4] = Tolerability in treated mice (body weight, feeding, behavior); type: in vivo; conditions: 50 mg/Kg/d
Procedure: (§3) To determine whether Compound CSRM617 is effective against CRPC metastases, 22Rv1 cells were injected intracardially in SCID mice, and the animals were subsequently treated with the above dose of the compound for several weeks. […] To test for evidence of bioactivity of Compound CSRM617 in situ, PEG10 protein levels were measured using IHC followed by digital imaging in adrenal gland tumors.

22Rv1 metastases = assay: 22Rv1 intracardiac injection metastasis model; type: in vivo, SCID mice; conditions: 50 mg/kg daily; 4 w after intracardiac injection
Procedure: FIG. 15 depicts in accordance with various embodiments of the invention, Compound CSRM617 inhibits metastasis. 22Rv1-luciferase labeled cells were injected intracardially and mice were randomized (n=7 per group) to receive vehicle or 50 mg/kg^−1 CSRM617, daily. BLI images of mice bearing metastatic tumors 4 w after the injection (left) and graphical representation of normalized BLI signals (right). Mean±SD (n=7 per group) is shown; **P<0.01.
as §3

PEG10 protein = PEG10 protein by IHC and digital imaging in tumors of treated mice; type: in vivo; conditions: adrenal gland tumors; IHC
Procedure: as §3

22Rv1 cells = assay: CellTiter-Glo cell viability of CSRM617 derivatives in 22Rv1; type: cell-based, human; conditions: for potency (IC50) compared with compound CSRM617: 100 μM to 0.2 μM, 48 hours; for cell viability: 48 hours post treatment, CellTiter-Glo
Procedure: FIG. 17A: 22Rv1 cells were plated at a density of 1000 cells per well, in triplicate, in a 96 well plate. The next day cells were exposed to compound CSRM617, several derivatives or vehicle (1% DMSO) at a concentration of 25 μM. Viability was measured 48 hours post treatment using CellTiter-Glo Luminescent Cell Viability Assay (Promega). FIG. 17B: 22Rv1 cells were plated at a density of 1000 cells per well, in triplicate, in a 96 well plate. The next day, TO reading was collected and cells were exposed to compound CSRM617, the derivatives or vehicle (1% DMSO) at 2-fold concentration ranging from 100 μM to 0.2 μM. Viability was measured 48 hours post treatment using CellTiter-Glo Luminescent Cell Viability Assay (Promega).

[5] = Solubility relative to CSRM617; type: physicochemical

| direct binding to OC2 [1] | potency (IC50) compared with compound CSRM617 (22Rv1 cells) | solubility compared with compound CSRM617 [5] | SMILES | cell viability (22Rv1 cells) | other results |
| --- | --- | --- | --- | --- | --- |
| binds directly to OC2 |  |  | N[C@@H](CO)C(=O)N/N=C/c1ccc(O)c(O)c1O [CSRM617] |  | Kd ([1]; SPR, serial doubling concentrations up to 100 μM): 7.43 µM; sensitivity (IC50) to compound (22RV1; 22RV1, 48 h incubation): highest sensitivity; cell proliferation in vitro (22RV1; 22Rv1): inhibited cell proliferation; cell proliferation in vitro (C4-2): inhibited cell proliferation; sensitivity (IC50) to compound (C4-2; 48 h incubation): highest sensitivity; cell proliferation in vitro (LNCaP): inhibited cell proliferation; apoptosis [2]: induced apoptosis; cell growth [2]: inhibited cell growth; apoptosis (cleaved Caspase-3 and PARP) [3]: induces apoptosis; perturbation of OC2 target genes (GSEA) (OC2 target genes): significant perturbation of OC2 target genes; PEG10 mRNA expression (PEG10 mRNA): downregulated in a time-dependent manner; subcutaneous tumor growth (22Rv1 xenografts): reduces tumor growth; also recorded: inhibited subcutaneous growth; body weight [4]: did not affect body weight; feeding patterns or behavior [4]: did not affect; onset and growth of diffuse metastases (BLI) (22Rv1 metastases): reduces significantly the onset and growth of diffuse metastases; also recorded: inhibited onset and growth of diffuse metastases; PEG10 protein levels in tumors (PEG10 protein): significantly down-regulated |
| directly bind OC2 | comparable activity | improved solubility | N[C@@H](CO)C(=O)NNCc1ccc(O)c(O)c1O [Compound 122] | reduces cell viability |  |
| directly bind OC2 | comparable activity | improved solubility | NC(=O)C1CCCCN1C(=O)NCCc1ccc(O)c(O)c1O (centres unmarked) [Compound 123] | reduces cell viability |  |
| directly bind OC2 | comparable activity | improved solubility | O=C(CNC(=O)Cc1ccc(O)c(O)c1O)NO [Compound 843] | reduces cell viability |  |
|  | comparable activity | improved solubility | CC(=O)NCCC(=O)NCCc1ccc(O)c(O)c1O [Compound 844] | reduces cell viability |  |
|  | comparable activity | improved solubility | O=C1CCC(C(=O)NCCc2ccc(O)c(O)c2O)CN1 (centres unmarked) [Compound 848] | reduces cell viability |  |

From patent publication US10927070B2, “Compositions and methods for treating cancer” (Cedars-Sinai Medical Center, priority 2016, dated 2021)
